The text below walks through data of paper PMC3538687, “Detection of Cyclic Diguanylate G-Octaplex Assembly and Interaction with Proteins” (PLoS ONE, 2013).

In assay [1] the target is T1, HIV-1 reverse transcriptase (HIV RT) (HIV-1 M:B_HXB2R, UniProt P04585).
T1 construct: gene gag-pol; purchased from Worthington; mature RT cut from Gag-Pol polyprotein; with p51 RT
Description: DRaCALA direct binding, protein titration. The conditions noted are these: labelled compound (32P), 500 nM; K+ buffer pH 7.9, room temperature; concentration given as cdiGMP monomers; octaplex only, cdiGMP M/D does not bind; primer-template site.

In assay [2] the target is T1, HIV-1 reverse transcriptase (HIV RT). Description: primer extension, […] min. Conditions: 80 mM KCl, 6 mM MgCl2, 100 µM dNTPs, pH 8; G8 prepared in K+; concentration given as cdiGMP monomers; octaplex only, M/D shows no inhibition. It is filed as biochemical.

Take cdiGMP G8: binding in assay [1] was put at a Kd of 0.7 ± 0.1 µM. Besides, the IC50 (as a rule, the concentration that inhibits the measured activity by half) in assay [2] amounted to 28 ± 7 µM.
